Assay results as given in paper PMC3636874, “An Antedrug of the CXCL12 Neutraligand Blocks Experimental Allergic Asthma without Systemic Effect in Mice” (The Journal of Biological Chemistry, 2013).

How the values were obtained:
[1] = tested on: inflammatory cell recruitment in the airways of OVA-sensitized and challenged BALB/c mice; experiment: 8-day murine model of airway hypereosinophilia (OVA sensitization and challenge), cell counts in BALF; assay type: in vivo, mouse; details: intranasal 300 nmol/kg in 10% HP-βCD; for effect on eosinophil / inflammatory cell recruitment in BALF after OVA challenge, intranasal: 2 h before each challenge
Experimental: The in vivo activity of the compounds was assessed in an 8-day model of hypereosinophilia created by immunization and challenge to ovalbumin in mice. Briefly, 9-week-old male BALB/c mice were sensitized by intraperitoneal injection of a mixture of 50 μg of ovalbumin (OVA, grade V; Sigma-Aldrich) adsorbed on aluminum hydroxide (2 mg; Sigma-Aldrich) in 0.1 ml of saline on days 0, 1, and 2. Mice were challenged intranasally with 10 μg of OVA in 25 μl of saline (12.5 μl/nostril) on days 5, 6, and 7. Control mice received intraperitoneal and intranasal administrations of saline alone. Intranasal administrations were performed under anesthesia with 50 mg/kg ketamine and 3.33 mg/kg xylazine given intraperitoneally. Food and water were supplied ad libitum. Animal experimentation was conducted with the approval of the government body that regulates animal research in France. The chalcone compounds were administered either by the intraperitoneal or intranasal routes. In a first set of experiments, mice received either chalcone 4 or carbonitrile-chalcone 4 solubilized in PBS with 10% HP-βCD (C0926, Sigma) by intranasal injection 2 h before each nasal OVA or saline challenge. In a second set of experiments, mice received CN-chalcone 4, vanillin, or parachlorobenzoylacetonitrile intranasally, in PBS with HP-βCD 10%, 2 h before each OVA or saline challenge. In the last set of experiments, mice received chalcone 4 or CN-chalcone 4 in suspension in carboxymethylcellulose 1% or solubilized in PBS with HP-βCD 10% and administered by intraperitoneal injection 2 h before each OVA or saline challenge. Collection of bronchoalveolar lavage fluid (BALF) was performed 24 h after the last OVA challenge. Mice were deeply anesthetized by intraperitoneal injection of 150 mg/kg ketamine and 10 mg/kg xylazine. A plastic canula was inserted into the trachea, and airways were lavaged by 10 instillations of 0.5 ml of ice-cold saline supplemented with 2.6 mM EDTA (saline-EDTA). Total and differential cell counts in the BALF were performed after centrifugation (300 × g for 5 min at 4 °C) to pellet cells. Erythrocytes were lysed by hypotonic shock by the addition of 1.5 ml of distilled H2O, followed by the addition of 0.5 ml of 0.6 M KCl. Cells were centrifuged and resuspended in 500 μl of ice-cold saline-EDTA, and total cell counts were determined using a hemocytometer (Neubauer's chamber). Differential cell counts were assessed on cytologic preparation obtained by cytocentrifugation (Cytospin 3, Shandon Ltd.) of 200 μl of diluted BALF (250,000 cells/ml in ice-cold saline-EDTA). Slides were stained with Hemacolor (Merck), and counts were performed on at least 400 cells for each preparation. Differential counts were expressed as absolute numbers or as a percentage of the total number of cells.
The in vivo activity of CN-chalcone 4 was assayed in a recently developed 8-day mouse model of airway hypereosinophilia ([24]). In this model, mice are sensitized by intraperitoneal injection of OVA (50 μg) adsorbed on 2 mg of aluminum hydroxide in 0.1 ml of saline on days 0, 1, and 2. Mice are then challenged intranasally with 10 μg of OVA in 25 μl of saline (12.5 μl/nostril) on days 5, 6, and 7. Drugs to be tested can be administered either systemically by the intraperitoneal route or locally by the intranasal route. The intranasal route mimics the inhalation exposure used in humans, which is the preferred and well accepted administration for inflamed airway treatment, in particular asthma. Thus, unless otherwise stated, drugs were administered intranasally in this study. Due to limited solubility of chalcone 4 (9 ± 1 μM) and CN-chalcone 4 (16 ± 2 μM) in saline buffer, drugs were dissolved in physiological solutions complemented with HP-βCD (10%, w/w). Under such conditions, chalcone 4 and CN-chalcone 4 could be dissolved at maximal concentrations reaching 690 ± 44 and 493 ± 36 μM, respectively.

CXCL12 binding to CXCR4 [2] = target: T1, CXCL12 binding to CXCR4 (Homo sapiens, UniProt P48061); design: method as in PMID 18556651; details: cited from earlier work
T1 construct: expressed in transfected cells

CXCL12 binding to CXCR4 [3] = target: T1, CXCL12 binding to CXCR4; experiment: FRET-based binding of CXCL12-TR to EGFP-hCXCR4 (competition); details: concentrations up to 10 μM
Experimental: FRET-based binding experiments were carried out as described ([26], [46]). Human embryonic kidney 293 cells expressing the fusion receptor EGFP-hCXCR4 were harvested in PBS (137 mM NaCl, 2.7 mM KCl, 4.3 mM Na2PO4·7H2O, 1.4 mM KH2PO4, pH 7.4) supplemented with 5 mM EDTA, pH 7.4, centrifuged, and resuspended in HEPES-bovine serum albumin (BSA) buffer (10 mM HEPES, 137.5 mM NaCl, 1.25 mM MgCl2, 1.25 mM CaCl2, 6 mM KCl, 10 mM glucose, 0.4 mM NaH2PO4, 0.1% bovine serum albumin (w/v), pH 7.4). Cells were used at a concentration of 10^6 cells/ml. Apparent affinities of the different ligands were determined by real-time fluorescence monitoring ligand-receptor interactions. […] Fluorescence emitted at 510 nm (excitation at 470 nm) was recorded at 21 °C using a Fluorolog 2 spectrofluorimeter (SPEX) and sampled every 0.3 s. Binding of CXCL12-TR to EGFP-labeled CXCR4 was detected as a reversible decline of emission at 510 nm, due to energy transfer from excited EGFP to TR. For competition experiments, the fluorescent chemokine was preincubated for 1 h at room temperature with or without various concentrations of each chalcone. Then the premix was added, and fluorescence was recorded until equilibrium was reached (300 s). Data were analyzed using Kaleidagraph 3.08 software (Synergy Software, Reading, PA).

O=C(/C=C/c1ccccc1)c1ccccc1 [chalcone 1, reference compound]
effect on eosinophil / inflammatory cell recruitment in BALF after OVA challenge, intranasal [1]: nor does it significantly attenuate eosinophil or any other inflammatory cell recruitment in the airways | cell recruitment in the airways elicited by compound itself (saline-challenged mice), intranasal ([1]; no OVA challenge): does not promote any inflammatory response per se | activity upon CXCL12 binding to CXCR4 (CXCL12 binding to CXCR4 [2]): inactive

N#CCC(=O)c1ccc(Cl)cc1 [pCBA, para-chlorobenzoylacetonitrile]
effect on eosinophil / inflammatory cell recruitment in BALF after OVA challenge, intranasal [1]: no effect on eosinophil recruitment in the airways | binding-neutralizing activity (CXCL12-TR binding to EGFP-CXCR4) (CXCL12 binding to CXCR4 [3]): Neither vanillin nor pCBA exhibits any binding-neutralizing activity

COc1cc(C=O)ccc1O [vanillin]
effect on eosinophil / inflammatory cell recruitment in BALF after OVA challenge, intranasal [1]: no effect on eosinophil recruitment in the airways | binding-neutralizing activity (CXCL12-TR binding to EGFP-CXCR4) (CXCL12 binding to CXCR4 [3]): Neither vanillin nor pCBA exhibits any binding-neutralizing activity
